We go through one molecule from PMC8305652, “Copper(II) Complexes Containing Natural Flavonoid Pomiferin Show Considerable In Vitro Cytotoxicity and Anti-inflammatory Effects” (International Journal of Molecular Sciences, 2021).

Assay [1] concerns caspase 3 (Casp-3) in THP-1 cells. The assay can be described thus: Western blotting of apoptosis-related proteins. Type of assay: cell-based, human. The note with it: THP-1, complexes 4 µM, cisplatin 10 µM, 24 h, Western blot. On the procedure:
In addition to the above-mentioned methods, the Western blotting method was used to shed light on the mechanisms associated with caspase 3 activation in the THP-1 cells. Two and a half milliliters of floating THP-1 monocytes resuspended in a serum-free RPMI 1640 medium were seeded into 6-well plates at the concentration of 10^6 cells/mL. Two hours later, complexes 3 and 5 were added at the concentration level of 4 µM. After 24 h incubation, the cells were collected by centrifugation (3000 g/5 min/4 °C), washed by cold PBS and resuspended in an ice-cold lysis buffer (50 mM Tris-HCl pH 7.5, 1 mM EGTA, 1 mM EDTA, 1 mM sodium orthovanadate, 50 mM sodium fluoride, 5 mM sodium pyrophosphate, 270 mM sucrose) with Roche cOmplete protease inhibitors (Roche Diagnostics, Basel, Switzerland). The cell lysates were centrifuged at 3000 g/5 min/4 °C and supernatants were mixed with a 5x Laemmli buffer [containing 250 mM Tris-HCl pH 6.8, 10% (w/v) SDS, 30% (v/v) glycerol, 5% (v/v) β-mercaptoethanol, 0.04% (w/v) bromphenol blue] and incubated at 70 °C for 5 min. […] The membranes were incubated at 4 °C for 16 h with a primary anti-cleaved caspase 3 (p17) antibody at the dilution 1:1000 (Cell Signaling, Danvers, MA, USA; products No. 9664), and an Apoptosis WB Cocktail (Abcam, Cambridge, UK; product No. ab136812) at the dilution recommended by the provider to detect β-actin, cleaved poly-(ADP-ribose) polymerase (PARP) and pro-caspase 3. After washing in a TBST buffer, the secondary anti-rabbit IgG antibody (Sigma-Aldrich, product No. A0545) was diluted 1:2500 and applied to the membranes, which were then incubated for 1 h at the laboratory temperature (~22 °C). The amount of bound secondary antibody was determined using an ECL reagent (Bio-Rad, Hercules, CA, USA). Chemiluminescence was detected using a Syngene PXi4 chemiluminescence imaging system (Cambridge, UK).

The subject of assay [2] is cisplatin-resistant ovarian carcinoma (A2780R). The assay can be described thus: in vitro cytotoxicity, MTT assay. In kind it is cell-based, human. The note with it: mean ± SD, at least three independent experiments. On the procedure: (§1) The testing was performed on the following human cancer cell lines: breast adenocarcinoma (MCF-7), osteosarcoma (HOS), lung adenocarcinoma (A549), prostate adenocarcinoma (PC-3), ovarian carcinoma (A2780), cisplatin-resistant ovarian carcinoma (A2780R) and colorectal adenocarcinoma (Caco-2) obtained from ATCC collection of cell lines and cultivated according to producer’s instructions.

Assay [3] relates to ovarian carcinoma (A2780). In words: in vitro cytotoxicity, MTT assay. Type of assay: cell-based, human. To be noted: mean ± SD, at least three independent experiments. On the procedure:
as §1

The test system of assay [4] is breast adenocarcinoma (MCF-7). In words: in vitro cytotoxicity, MTT assay. In kind it is cell-based, human. The note with it: mean ± SD, at least three independent experiments. On the procedure: as §1
Assay [5] concerns lung adenocarcinoma (A549). In words: in vitro cytotoxicity, MTT assay. Type of assay: cell-based, human. The note with it: mean ± SD, at least three independent experiments. As for the experimental part:
as §1

The subject of assay [6] is prostate adenocarcinoma (PC-3). The assay can be described thus: in vitro cytotoxicity, MTT assay. In kind it is cell-based, human. The note with it: mean ± SD, at least three independent experiments. As for the experimental part:
as §1
Background: Tetrazolium dyes change colour on reduction, which living cells bring about.

For assay [7], the system named is Ea.Hy 926 endothelial hybrid cells. The arrangement: method as in PMID 27936296. The note with it: read-out: IC50 Ea.Hy 926 healthy endothelial hybrid cells; cited from earlier work.
Assay [8] concerns A2780 cells. In words: Annexin V/propidium iodide cell death assay, flow cytometry. In kind it is cell-based, human. The note with it: A2780, 15 µM, 24 h; mean of three experiments. On the procedure: Both methods were performed according to the manufacturers’ protocols with 1 modification in the caspase induction assay, which was the use of the CellEvent^TM Caspase-3/7 Green Detection Reagent only for detection of Caspase-3/7 activation. […] After 24 h, the cells were washed once with PBS (0.1 M, pH 7.4), detached with trypsin (0.25% in ethylenediaminetetraacetic acid (EDTA), Sigma-Aldrich), resuspended in 500 µL of the culture medium and divided into 2 separate tubes, the first for apoptosis assay and the second one for caspase activation analysis. After staining with appropriate dyes, samples were analyzed on a BD FACSVerse flow cytometer (Becton Dickinson, Franklin Lakes, NJ, USA) in 3 separate experiments, while at least 10^4 events were recorded for each sample prepared in duplicate.

Assay [9] deals with A2780 cells. In words: cell cycle analysis by flow cytometry. In kind it is cell-based, human. The note with it: A2780, 15 µM, 24 h; untreated control 21.4 ± 0.8%. On the procedure: Human ovarian cancer cell line A2780 (Sigma, Darmstadt, Germany) were used for this study. Cells were cultivated at 37 °C under a 5% CO2 atmosphere in an RPMI 1640 medium (Sigma Aldrich, Darmstadt, Germany) supplemented with (the final concentrations in medium): L-glutamine (2 mM), fetal bovine serum (FBS, 10%) and PenStrep (5 U penicillin, 50 µg streptomycin/mL).
After 24 h, the cells were washed once with PBS (0.1 M, pH 7.4) and cell cycle analysis was performed according to the protocol of BD Cycletest^TM Plus DNA kit (Becton Dickinson, Franklin Lakes, NJ, USA). Measurements were performed using BD FACSVerse flow cytometer (Becton Dickinson, Franklin Lakes, NJ, USA) in 3 independent experiments, each done in duplicate, while at least 5 × 10^3 events were recorded for each sample.

Another assay deals with osteosarcoma (HOS). The assay can be described thus: in vitro cytotoxicity, MTT assay. Type of assay: cell-based, human. The note with it: mean ± SD, at least three independent experiments.
Assay [10] deals with 518A2, Panc-1, MCF-7/Topo, KB-V1/Vbl, DLD-1, U-87 MG cancer cell lines. The arrangement: method as in PMID 27936296. To be noted: range over cell lines; read-out: IC50 values on the mentioned cancer cell lines; cited from earlier work.
Assay [11] concerns primary culture of human hepatocytes (Hep). In words: toxicity against primary culture of human hepatocytes. In kind it is cell-based. The note with it: tested range 0.1–100 μM.

One may read the IC50 as the concentration that gives 50% inhibition. In the case of `N.N.[Cl][Pt][Cl]` [cisplatin, reference compound], in assay [1], the “proteolytically activated Casp-3 (verified by cleaved PARP-1)” value is “detected”. Moreover, the IC50 was above 80 µM in [2]; 26.3 ± 2.1 µM in [3]; 30.8 ± 1.8 µM in assay [4]; above 80 µM in assay [5]; above 80 µM in assay [6]; 17.3 ± 1.9 µM in [7]. For the same molecule, the figures for the IC50 (with osteosarcoma (HOS); in [10]; in assay [11]) were 30 ± 5.9 µM, 4 to 32.6 µM and above 80 µM, respectively. Moreover, the “Annexin V +/PI + cells (late apoptotic/secondary necrotic)” value with A2780 cells [8] came out at 23.7 ± 2.0%. In addition, the “Annexin V +/PI − cells (early apoptotic)” value with A2780 cells [8] is 41.5 ± 0.8%. For the same molecule, in the assay with A2780 cells [9], the “cells in the S phase of the cell cycle” value came to 51.4 ± 2.2%.
